Data: the NIST ThermoML archive (doi:10.1016/j.jct.2014.01.020)
± gives the expanded uncertainty stated by the source.

Experiment: molar heat capacity at constant pressure; xn = mol fraction of the nth substance listed
Details: Liquid, Flow calorimetry

C1CCCCC1 [cyclohexane] + CCCCO
molar heat capacity at constant pressure [J/K/mol]
Details | x2 = 0 | x2 = 0.1013 | x2 = 0.2003 | x2 = 0.3002 | x2 = 0.4013 | x2 = 0.4997 | x2 = 0.6002 | x2 = 0.6999 | x2 = 0.7998 | x2 = 0.8999
293.15 K, 100 kPa | 154.7 ± 1.6 | 164.6 ± 1.7 | 166.7 ± 1.7 | 168.6 ± 1.7 | 170.9 ± 1.7 | 171.2 ± 1.7 | 171.4 ± 1.7 | 172.1 ± 1.7 | 172.2 ± 1.7 | 172.8 ± 1.7
293.15 K, 5000 kPa | 153.8 ± 1.6 | 163.3 ± 1.7 | 165.3 ± 1.7 | 167.1 ± 1.7 | 169.5 ± 1.7 | 169.7 ± 1.7 | 170.2 ± 1.7 | 170.6 ± 1.7 | 171 ± 1.7 | 171.9 ± 1.7
293.15 K, 10000 kPa | 152.5 ± 1.5 | 161.2 ± 1.6 | 163.5 ± 1.7 | 165.4 ± 1.7 | 167.7 ± 1.7 | 168.2 ± 1.7 | 168.6 ± 1.7 | 169.4 ± 1.7 | 169.5 ± 1.7 | 170.4 ± 1.7
293.15 K, 15000 kPa | 150.5 ± 1.5 | 159.1 ± 1.6 | 161 ± 1.6 | 163.4 ± 1.7 | 165.5 ± 1.7 | 165.9 ± 1.7 | 166.3 ± 1.7 | 168 ± 1.7 | 168.3 ± 1.7 | 169.1 ± 1.7
293.15 K, 20000 kPa | 149.7 ± 1.5 | 157.5 ± 1.6 | 159.3 ± 1.6 | 161.7 ± 1.6 | 164.4 ± 1.7 | 164.9 ± 1.7 | 164.8 ± 1.7 | 167.1 ± 1.7 | 167.1 ± 1.7 | 167.7 ± 1.7
293.15 K, 25000 kPa | 147.7 ± 1.5 | 155.9 ± 1.6 | 157.8 ± 1.6 | 160.3 ± 1.6 | 162.8 ± 1.6 | 163.1 ± 1.6 | 163.4 ± 1.7 | 165.6 ± 1.7 | 166 ± 1.7 | 166.6 ± 1.7
313.15 K, 100 kPa | – | 179.7 ± 1.8 | 182.8 ± 1.8 | 185.3 ± 1.9 | 187.8 ± 1.9 | 188.1 ± 1.9 | 189.4 ± 1.9 | 191.3 ± 1.9 | 191.4 ± 1.9 | 191.1 ± 1.9
313.15 K, 5000 kPa | – | 177.4 ± 1.8 | 180.4 ± 1.8 | 183.2 ± 1.9 | 186.1 ± 1.9 | 186.5 ± 1.9 | 187.4 ± 1.9 | 189.1 ± 1.9 | 189.9 ± 1.9 | 189.3 ± 1.9
313.15 K, 10000 kPa | – | 175.2 ± 1.8 | 178.8 ± 1.8 | 181.1 ± 1.8 | 183.7 ± 1.9 | 184.5 ± 1.9 | 185.4 ± 1.9 | 187.4 ± 1.9 | 188.9 ± 1.9 | 187.3 ± 1.9
313.15 K, 15000 kPa | – | 172.9 ± 1.7 | 175.8 ± 1.8 | 178.9 ± 1.8 | 181.6 ± 1.8 | 182.7 ± 1.8 | 183.8 ± 1.9 | 185.5 ± 1.9 | 187.2 ± 1.9 | 186.5 ± 1.9
313.15 K, 20000 kPa | – | 170.5 ± 1.7 | 173.8 ± 1.8 | 177 ± 1.8 | 180.4 ± 1.8 | 180.7 ± 1.8 | 181.4 ± 1.8 | 184.3 ± 1.9 | 185.4 ± 1.9 | 184.6 ± 1.9
313.15 K, 25000 kPa | 154.6 ± 1.6 | 168.7 ± 1.7 | 171.6 ± 1.7 | 175 ± 1.8 | 177.8 ± 1.8 | 179.3 ± 1.8 | 179.7 ± 1.8 | 182.3 ± 1.8 | 183.9 ± 1.9 | 183.1 ± 1.9
